# In patent US10544178B2, “Metal complex compound and preparing method and usage thereof” (National Changhua University of Education, priority 2018, dated 2020):
# Legend:
# [1] = tested on: DU145 breast cancer cell
# Experimental: (§1) Pharmacology Research: cytotoxicity research upon PC-3 prostatic cancer and DU145 breast cancer
# (§2) Human cell HRMPC performing cell activity of PC-3 prostatic cancer and DU145 breast cancer is placed into PRMI1640 culture medium to be cultured under a temperature of 37° C. in a 5% CO2/95% air. The PRMI1640 culture medium contains 10% FBS and penicillin (100 U/ml)/streptomycin (100 U/ml).
# (§3) Subsequently, the cell survivability is quantified through colorimetry (Sulforhodamine B Assay).
# [2] = tested on: PC-3 prostatic cancer cell
# Experimental: as §1, §2, §3
Substance,IC50 [1],IC50 [2]
para-methylisopropylphenylchloride-2-(2-indazolyl)1-phenyl-1-oxyethylruthenium [Embodiment 7],> 30 µM,
para-methylisopropylphenylchloride-2-[1-(2-naphthyl)azomethine]phenoxyruthenium [Embodiment 5],14.2 ± 0.35 µM,4.58 ± 0.32 µM
para-methylisopropylphenylchloride-1-carbonyl-3-n-phenyl-1-phenyl-2-butyleneruthenium [Embodiment 1],9.31 ± 1.48 µM,5.66 ± 0.2 µM

# Now from value to substance:
IC50 [1],IC50 [2],Substance
14.3 ± 0.28 µM,5.68 ± 0.12 µM,para-methylisopropylphenylchloride-1-carbonyl-3-[(2-methoxyl) n-phenyl]-1-phenyl-2-butyleneruthenium [Embodiment 2]
13.1 ± 0.95 µM,3.01 ± 1.17 µM,para-methylisopropylphenylchloride-2-[1-para-tolueneimino]phenoxyruthenium [Embodiment 4]
5.37 ± 0.06 µM,2.39 ± 0.13 µM,"para-methylisopropylphenylchloride-1-carbonyl-3-[(2,6-diisopropyl)n-phenyl]-1-phenyl-2-butyleneruthenium [Embodiment 3]"
> 30 µM,> 30 µM,para-methylisopropylphenylchloride-1-(para-diethylaminophenyl)-3-[(1-methyl-3-indazolyl)imino]-1-oxypropylruthenium [Embodiment 6]
